Assay results reported in publication PMC6287599, “2,6-Bis(2-Benzimidazolyl)Pyridine (BBP) Is a Potent and Selective Inhibitor of Small Conductance Calcium-Activated Potassium (SK) Channels” (Frontiers in Pharmacology, 2018).
Where “and” joins values, the source holds several entries; their conditions need not be identical. Equal entries are not always repeated. Entries after “also recorded” stand apart in the source; their conditions may differ.

Tests used:
[1] = target: Kv7.1/KCNE1 (Homo sapiens, UniProt P51787); test: Two-electrode voltage clamp in Xenopus laevis oocytes, Kv7.1/KCNE1; assay type: cell-based; conditions: BBP 10 μM, TEVC, n = 5
Description: cRNA was prepared from linearized plasmids using the mMESSAGE mMACHINE T7 kit (Ambion, USA) and quantified by UV spectroscopy (NanoDrop, Thermo Scientific, Wilmington, USA). Xenopus laevis oocytes were acquired from EcoCyte Bioscience (Castrop-Rauxel, Germany). Oocytes were injected with 50 nL cRNA and currents were recorded after 2 days of incubation at 19°C. Currents were recorded at a sampling rate of 10 kHz using a TEVC amplifier (Dagan CA-1B; IL, USA), and borosilicate glass recording electrodes (Module Ohm, Herlev, Denmark), made with a DMZ Universal Puller (Zeitz Instruments, Martinsried, Germany) with a resistance of 0.5–1 MΩ when filled with 2 M KCl. Oocytes were superfused with Kulori (pH 7.4) solution containing NaCl 90 mM, KCl 4 mM, MgCl2 1 mM, CaCl2 1 mM, 4-(2-hydroxyethyl)-1-piperazineethanesulfonic acid 5 mM, and currents were elicited with the voltage protocols previously indicated (Skarsfeldt et al., [2016]), from a holding potential of −80 mV. […]
To assess the effect of BBP on other calcium-activated potassium channels (hBK, hSK3 WT, rSK3 H491N, and hIK), each individual current was first normalized to its cell size using membrane's capacitance (pA/pF) before statistical analysis. […] Statistical significance between saline and the effect of both BBP and the corresponding reference compound was determined for each channel using one-way ANOVA analysis. […]

[2] = system: all three SK channel subtypes; test: Automated patch clamp, summary over all three SK channel subtypes; assay type: cell-based, human; conditions: summary value, read-out: IC50 on all three SK channel subtypes (similar potency)
Description: Three different stable HEK293 cell lines expressing hSK1, hSK2 or hSK3 (NeuroSearch A/S, Ballerup, Denmark) and a CHO stable cell line expressing hERG (University of Copenhagen, Copenhagen, Denmark) were used for automated patch clamp. These cells were cultivated and prepared as previously described (Skarsfeldt et al., [2016]).
Automated patch clamp (QPatch 16, Sophion, Denmark) on SK-expressing HEK293 cell lines was conducted as previously described (Simó-Vicens et al., [2017b]). Briefly, SK currents were elicited by voltage-ramps starting at −80 mV and finishing at +80 mV from a holding potential of 0 mV. Extracellular solution contained 0.1 mM CaCl2, 3 mM MgCl2, 154 mM KCl, 10 mM HEPES and 10 mM glucose with pH 7.4. Intracellular solution for SK experiments contained 8.106 mM CaCl2 (final free calcium concentration of 400 nM), 1.167 mM MgCl2, 10 mM EGTA, 154 mM KCl, 10 mM HEPES, 31.25/ 10 mM KOH/EGTA and 15 mM KOH with pH 7.2. Automated patch clamp on hERG-expressing CHO cell line was performed also as previously described (Skarsfeldt et al., [2016]).
Where Y is the normalized response, from 100, corresponding to current recorded during saline perfusion, down to 0, corresponding to currents recorded in the presence of bicuculline methiodide 100 μM. X is the log of the BBP concentration. A standard Hill Slope of −1 was considered for this purpose. […]

IC50 [2]: 400 nM and ~400 nM
SMILES: c1cc(-c2nc3ccccc3[nH]2)nc(-c2nc3ccccc3[nH]2)c1 [BBP, 2,6-Bis(2-benzimidazolyl)pyridine]
Effect on Kv7.1/KCNE1 current [1]: did not have any effect; also recorded: did not significantly affect
